This passage reports DC50 results from US20250368620A1, “ARNT Degrading Compounds and Uses Thereof” (Celgene Corporation, priority 2024, published 2025).

T1 sequence (P27540 whole entry): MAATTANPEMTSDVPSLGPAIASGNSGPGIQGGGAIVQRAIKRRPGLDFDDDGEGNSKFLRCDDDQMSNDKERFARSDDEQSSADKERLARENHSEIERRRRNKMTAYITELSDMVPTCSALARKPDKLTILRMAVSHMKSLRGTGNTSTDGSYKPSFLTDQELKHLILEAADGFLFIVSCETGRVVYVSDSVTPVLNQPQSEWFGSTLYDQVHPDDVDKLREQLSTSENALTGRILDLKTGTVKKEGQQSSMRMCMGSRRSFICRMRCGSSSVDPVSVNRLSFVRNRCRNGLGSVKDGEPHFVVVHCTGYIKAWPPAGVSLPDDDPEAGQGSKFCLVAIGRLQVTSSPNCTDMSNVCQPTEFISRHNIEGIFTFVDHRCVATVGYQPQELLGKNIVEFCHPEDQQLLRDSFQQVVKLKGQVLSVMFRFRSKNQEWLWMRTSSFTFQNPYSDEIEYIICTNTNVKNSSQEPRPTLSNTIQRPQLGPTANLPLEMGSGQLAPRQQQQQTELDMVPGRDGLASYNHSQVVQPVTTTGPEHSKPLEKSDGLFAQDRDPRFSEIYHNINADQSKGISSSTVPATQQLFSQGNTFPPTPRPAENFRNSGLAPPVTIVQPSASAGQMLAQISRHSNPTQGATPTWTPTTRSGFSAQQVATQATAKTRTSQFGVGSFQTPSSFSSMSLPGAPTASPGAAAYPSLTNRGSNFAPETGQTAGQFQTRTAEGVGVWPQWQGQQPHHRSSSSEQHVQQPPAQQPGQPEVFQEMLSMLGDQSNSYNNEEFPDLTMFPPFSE

This experiment has as its target T1, ARNT (Homo sapiens, UniProt P27540).
T1 construct: an sgRNA targeting the C-terminus of the ARNT gene near the stop codon; endogenous in cells; host or cells: HEK293 ARNT-HiBiT knock-in, homozygous clone
Put plainly: ARNT degradation in a HiBiT system (HEK293 ARNT-HiBiT Knock-In cell line). The class given is cell-based. The following applies: half-maximal degradation concentration; HEK293 ARNT-HiBiT KI cells, 4h of treatment, luminescence. The procedure: Compounds of Formula (I) were tested for ARNT degradation in a HiBiT system. A HEK293 ARNT-HiBiT Knock-In cell line was generated using CRISPR/Cas9 technology. Briefly, HEK293 cells were electroporated with the Neon system with an sgRNA targeting the C-terminus of the ARNT gene near the stop codon ([…] (SEQ ID NO: 1); chr 1: 150,812,014-150,812,034) and the HiBiT donor DNA template (80 nucleotides homology arms upstream and downstream of the insert site, with a GSGS (SEQ ID NO: 2) linker). A homozygous clone was selected after Sanger sequencing, and genetic edition was further validated using Nano-Glo HiBiT blotting system. HEK293 ARNT-HiBiT KI cells were cultured in DMEM+10% FBS at 37° C. and 5% CO2. For the assay, cells were seeded at 10,000 cells/well in white 384 plates (Corning #3570) in 22.5 μl of culture medium without phenol red. Test compounds were spotted in 384-well plates by an acoustic dispenser (10 concentrations, semi-log dilution, in 100% DMSO). Before treatment, compounds were diluted 1:100 or 1:1,000 in culture medium without phenol red, and cells were treated with 2.5 μl of diluted compounds 18h after seeding (final top concentration: 3 or 0.3 μM). After 4h of treatment, plates were equilibrated at room temperature for 30 min, and 25 μl of NANO-GLO® HiBiT Lytic reagent were added per well. Luminescence was measured on a plate reader 15 min after incubation with the detection reagent. Data were analyzed using the Genedata Screener Software version 19, and normalization was performed using the DMSO treated wells as Neutral Control and medium only (without cells) wells as Scale Reference. For curve fitting, the smart fit condensing method with a 4-parameters Hill model was used and the half-maximal degradation concentration (DC50) was calculated.
A general note: The HiBiT peptide binds its large partner to form an active luciferase.
As for `C[C@@H]1c2cc(C(=O)N3Cc4ccccc4[C@@H]3CN(C)C)ccc2C(=O)N1[C@H]1CCC(=O)NC1=O` [Compound 1, (S)-3-((R)-5-((R)-1-((dimethylamino)methyl)isoin-doline-2-carbonyl)-3-methyl-1-oxoisoindolin-2-yl)piperidine-2,6-dione], the 50% degradation concentration (DC50) (as a rule, the concentration giving 50% degradation) worked out at 0.29 nM.

As for `C[C@@H]1c2cc(C(=O)N3Cc4c(ccc(Cl)c4F)[C@@H]3CN(C)C)ccc2C(=O)N1[C@H]1CCC(=O)NC1=O` [Compound 2, (S)-3-((R)-5-((R)-5-chloro-1-((dimethylamino)methyl)-4-fluoroisoindoline-2-carbonyl)-3-methyl-1-oxoisoindolin-2-yl)piperidine-2,6-dione], the 50% degradation concentration (DC50) came out at 0.33 nM. This DC50 and that of the molecule before are within 1.5-fold of each other.

Consider `C[C@@H]1c2cc(C(=O)N3Cc4c(Br)cccc4[C@@H]3CN(C)C)ccc2C(=O)N1[C@H]1CCC(=O)NC1=O` [Compound 3, (S)-3-((R)-5-((R)-4-bromo-1-((dimethylamino)methyl)isoin-doline-2-carbonyl)-3-methyl-1-oxoisoindolin-2-yl)piperidine-2,6-dione], for which the half-maximal degradation concentration (DC50) was 0.39 nM. The DC50 values of the last two molecules are within 1.5-fold of each other.

In turn, `C[C@@H]1c2cc(C(=O)N3Cc4c(ccc(Cl)c4F)[C@@H]3CN3CCCC3)ccc2C(=O)N1[C@H]1CCC(=O)NC1=O` [Compound 4, (S)-3-((R)-5-((R)-5-chloro-4-fluoro-1-(pyrrolidin-1-ylmethyl)isoindoline-2-carbonyl)-3-methyl-1-oxoisoindolin-2-yl)piperidine-2,6-dione] came in with a 50% degradation concentration (DC50) of 0.42 nM.

With `C[C@H]1c2ccc(Cl)c(F)c2CN1C(=O)c1ccc2c3c(cccc13)N(C1CCC(=O)NC1=O)C2=O` (stereo partly drawn) [Compound 5, 3-(5-((S)-5-chloro-4-fluoro-1-methylisoindoline-2-carbonyl)-2-oxobenzo[cd]indol-1(2H)-yl)piperidine-2,6-dione], the DC50 amounted to 0.42 nM.

`C[C@@H]1c2cc(C(=O)N3Cc4c(ccc(Cl)c4F)[C@@H]3CN3CCCCC3)ccc2C(=O)N1[C@H]1CCC(=O)NC1=O` [Compound 6, (S)-3-((R)-5-((R)-5-chloro-4-fluoro-1-(piperidin-1-ylmethyl)isoindoline-2-carbonyl)-3-methyl-1-oxoisoindolin-2-yl)piperidine-2,6-dione] gave a DC50 of 0.46 nM.

`C[C@@H]1c2cc(C(=O)N3Cc4c(ccc(Cl)c4F)[C@@H]3CN3CC4CC3C4)ccc2C(=O)N1[C@H]1CCC(=O)NC1=O` [Compound 7, (S)-3-((R)-5-((R)-1-((2-azabicyclo[2.1.1]hexan-2-yl)methyl)-5-chloro-4-fluoroisoindoline-2-carbonyl)-3-methyl-1-oxoisoindolin-2-yl)piperidine-2,6-dione]: the DC50 stood at 0.48 nM.

For the molecule `C[C@@H]1c2cc(C(=O)N3Cc4cc(C(F)(F)F)ccc4[C@@H]3CN(C)C)ccc2C(=O)N1[C@H]1CCC(=O)NC1=O` [Compound 8, (S)-3-((R)-5-((R)-1-((dimethylamino)methyl)-5-(trifluoromethyl)isoindoline-2-carbonyl)-3-methyl-1-oxoisoindolin-2-yl)piperidine-2,6-dione], it took 0.61 nM to reach half-maximal degradation (DC50). The DC50 values of the last two molecules are within 1.5-fold of each other.

`C[C@@H]1c2cc(C(=O)N3Cc4cc(Br)ccc4[C@@H]3C)ccc2C(=O)N1[C@H]1CCC(=O)NC1=O` [Compound 9, (S)-3-((R)-5-((S)-5-bromo-1-methylisoindoline-2-carbonyl)-3-methyl-1-oxoisoindolin-2-yl)piperidine-2,6-dione] gave a 50% degradation concentration (DC50) of 0.66 nM.

In turn, `C[C@@H]1c2cc(C(=O)N3Cc4c(ccc(Cl)c4F)[C@@H]3CN3CC4CCC3C4)ccc2C(=O)N1[C@H]1CCC(=O)NC1=O` (stereo partly drawn) [Compound 10, (3S)-3-((3R)-5-((1R)-1-((2-azabicyclo[2.2.1]heptan-2-yl)methyl)-5-chloro-4-fluoroisoindoline-2-carbonyl)-3-methyl-1-oxoisoindolin-2-yl)piperidine-2,6-dione] showed a DC50 of 0.71 nM. The DC50 values of the last two molecules are within 1.5-fold of each other.

`COc1cccc2c1CN(C(=O)c1ccc3c(c1)[C@@H](C)N([C@H]1CCC(=O)NC1=O)C3=O)[C@H]2CN(C)C` [Compound 11, (S)-3-((R)-5-((R)-1-((dimethylamino)methyl)-4-methoxyisoindoline-2-carbonyl)-3-methyl-1-oxoisoindolin-2-yl)piperidine-2,6-dione] returned a DC50 of 0.72 nM.

`C[C@@H]1c2cc(C(=O)N3Cc4c(ccc(Cl)c4F)[C@@H]3CN3CCC(F)CC3)ccc2C(=O)N1[C@H]1CCC(=O)NC1=O` [Compound 12, (S)-3-((R)-5-((R)-5-chloro-4-fluoro-1-((4-fluoropiperidin-1-yl)methyl)isoindoline-2-carbonyl)-3-methyl-1-oxoisoindolin-2-yl)piperidine-2,6-dione] registered a half-maximal degradation concentration (DC50) of 0.73 nM.

In turn, `C[C@@H]1c2cc(C(=O)N3Cc4cc(F)ccc4[C@@H]3C)ccc2C(=O)N1[C@H]1CCC(=O)NC1=O` [Compound 13, (S)-3-((R)-5-((S)-5-fluoro-1-methylisoindoline-2-carbonyl)-3-methyl-1-oxoisoindolin-2-yl)piperidine-2,6-dione] registered a DC50 of 0.78 nM.

For `COc1ccc2c(c1Br)CN(C(=O)c1ccc3c(c1)[C@@H](C)N([C@H]1CCC(=O)NC1=O)C3=O)[C@H]2CN(C)C` [Compound 14, (S)-3-((R)-5-((R)-4-bromo-1-((dimethylamino)methyl)-5-methoxyisoindoline-2-carbonyl)-3-methyl-1-oxoisoindolin-2-yl)piperidine-2,6-dione], it took 0.95 nM to reach half-maximal degradation (DC50). This DC50 and that of the molecule before are within 1.5-fold of each other.

Molecule `C[C@@H]1c2cc(C(=O)N3Cc4c(ccc(Cl)c4F)[C@@H]3CN3CC(F)(F)C3)ccc2C(=O)N1[C@H]1CCC(=O)NC1=O` [Compound 15, (S)-3-((R)-5-((R)-5-chloro-1-((3,3-difluoroazetidin-1-yl)methyl)-4-fluoroisoindoline-2-carbonyl)-3-methyl-1-oxoisoindolin-2-yl)piperidine-2,6-dione] yielded a DC50 of 1 nM.

Regarding `C[C@H]1c2ccc(C(F)(F)F)cc2CN1C(=O)c1ccc2c3c(cccc13)N(C1CCC(=O)NC1=O)C2=O` (stereo partly drawn) [Compound 16, 3-(5-((S)-1-methyl-5-(trifluoromethyl)isoindoline-2-carbonyl)-2-oxobenzo[cd]indol-1(2H)-yl)piperidine-2,6-dione], the DC50 was 1 nM.

In turn, `C[C@@H]1c2cc(C(=O)N3Cc4c(ccc(Cl)c4F)[C@@H]3CN3CCC3)ccc2C(=O)N1[C@H]1CCC(=O)NC1=O` [Compound 17, (S)-3-((R)-5-((R)-1-(azetidin-1-ylmethyl)-5-chloro-4-fluoroisoindoline-2-carbonyl)-3-methyl-1-oxoisoindolin-2-yl)piperidine-2,6-dione] registered a DC50 of 1.2 nM.

The molecule `Cc1c(C2CC2)ccc2c1CN(C(=O)c1ccc3c(c1)[C@@H](C)N([C@H]1CCC(=O)NC1=O)C3=O)[C@H]2C` [Compound 18, (S)-3-((R)-5-((S)-5-cyclopropyl-1,4-dimethylisoindoline-2-carbonyl)-3-methyl-1-oxoisoindolin-2-yl)piperidine-2,6-dione] showed a DC50 of 1.2 nM.

Take `C[C@@H]1c2cc(C(=O)N3Cc4c(ccc(Br)c4F)[C@@H]3C)ccc2C(=O)N1[C@H]1CCC(=O)NC1=O` [Compound 19, (S)-3-((R)-5-((S)-5-bromo-4-fluoro-1-methylisoindoline-2-carbonyl)-3-methyl-1-oxoisoindolin-2-yl)piperidine-2,6-dione]: the half-maximal degradation concentration (DC50) was 1.2 nM.
